From patent publication US5424456A, “N-arylalkylderivatives of 2-aminomethyl-2,3-dihydro-1,4-benzodioxine and the process of preparation thereof” (Vyzkumny Ustav Pro Farmacii A Biochemii s.p., priority 1991, dated 1995)

Tests used:
calcium channel = target: T1, calcium channel (Rattus norvegicus, UniProt P22002); assay: Calcium channel blocking activity, K+ depolarization-induced contraction of helically cut rat aortic strip; details: Krebs-Henselheit solution, 37° C., cumulative doses, read-out: IC50 (50% decrease of contraction of the aortic strip)
T1 construct: helically cut rat aortic strip; from tissue; host or cells: rat aorta (helically cut strip)
T1 sequence (P22002 whole entry): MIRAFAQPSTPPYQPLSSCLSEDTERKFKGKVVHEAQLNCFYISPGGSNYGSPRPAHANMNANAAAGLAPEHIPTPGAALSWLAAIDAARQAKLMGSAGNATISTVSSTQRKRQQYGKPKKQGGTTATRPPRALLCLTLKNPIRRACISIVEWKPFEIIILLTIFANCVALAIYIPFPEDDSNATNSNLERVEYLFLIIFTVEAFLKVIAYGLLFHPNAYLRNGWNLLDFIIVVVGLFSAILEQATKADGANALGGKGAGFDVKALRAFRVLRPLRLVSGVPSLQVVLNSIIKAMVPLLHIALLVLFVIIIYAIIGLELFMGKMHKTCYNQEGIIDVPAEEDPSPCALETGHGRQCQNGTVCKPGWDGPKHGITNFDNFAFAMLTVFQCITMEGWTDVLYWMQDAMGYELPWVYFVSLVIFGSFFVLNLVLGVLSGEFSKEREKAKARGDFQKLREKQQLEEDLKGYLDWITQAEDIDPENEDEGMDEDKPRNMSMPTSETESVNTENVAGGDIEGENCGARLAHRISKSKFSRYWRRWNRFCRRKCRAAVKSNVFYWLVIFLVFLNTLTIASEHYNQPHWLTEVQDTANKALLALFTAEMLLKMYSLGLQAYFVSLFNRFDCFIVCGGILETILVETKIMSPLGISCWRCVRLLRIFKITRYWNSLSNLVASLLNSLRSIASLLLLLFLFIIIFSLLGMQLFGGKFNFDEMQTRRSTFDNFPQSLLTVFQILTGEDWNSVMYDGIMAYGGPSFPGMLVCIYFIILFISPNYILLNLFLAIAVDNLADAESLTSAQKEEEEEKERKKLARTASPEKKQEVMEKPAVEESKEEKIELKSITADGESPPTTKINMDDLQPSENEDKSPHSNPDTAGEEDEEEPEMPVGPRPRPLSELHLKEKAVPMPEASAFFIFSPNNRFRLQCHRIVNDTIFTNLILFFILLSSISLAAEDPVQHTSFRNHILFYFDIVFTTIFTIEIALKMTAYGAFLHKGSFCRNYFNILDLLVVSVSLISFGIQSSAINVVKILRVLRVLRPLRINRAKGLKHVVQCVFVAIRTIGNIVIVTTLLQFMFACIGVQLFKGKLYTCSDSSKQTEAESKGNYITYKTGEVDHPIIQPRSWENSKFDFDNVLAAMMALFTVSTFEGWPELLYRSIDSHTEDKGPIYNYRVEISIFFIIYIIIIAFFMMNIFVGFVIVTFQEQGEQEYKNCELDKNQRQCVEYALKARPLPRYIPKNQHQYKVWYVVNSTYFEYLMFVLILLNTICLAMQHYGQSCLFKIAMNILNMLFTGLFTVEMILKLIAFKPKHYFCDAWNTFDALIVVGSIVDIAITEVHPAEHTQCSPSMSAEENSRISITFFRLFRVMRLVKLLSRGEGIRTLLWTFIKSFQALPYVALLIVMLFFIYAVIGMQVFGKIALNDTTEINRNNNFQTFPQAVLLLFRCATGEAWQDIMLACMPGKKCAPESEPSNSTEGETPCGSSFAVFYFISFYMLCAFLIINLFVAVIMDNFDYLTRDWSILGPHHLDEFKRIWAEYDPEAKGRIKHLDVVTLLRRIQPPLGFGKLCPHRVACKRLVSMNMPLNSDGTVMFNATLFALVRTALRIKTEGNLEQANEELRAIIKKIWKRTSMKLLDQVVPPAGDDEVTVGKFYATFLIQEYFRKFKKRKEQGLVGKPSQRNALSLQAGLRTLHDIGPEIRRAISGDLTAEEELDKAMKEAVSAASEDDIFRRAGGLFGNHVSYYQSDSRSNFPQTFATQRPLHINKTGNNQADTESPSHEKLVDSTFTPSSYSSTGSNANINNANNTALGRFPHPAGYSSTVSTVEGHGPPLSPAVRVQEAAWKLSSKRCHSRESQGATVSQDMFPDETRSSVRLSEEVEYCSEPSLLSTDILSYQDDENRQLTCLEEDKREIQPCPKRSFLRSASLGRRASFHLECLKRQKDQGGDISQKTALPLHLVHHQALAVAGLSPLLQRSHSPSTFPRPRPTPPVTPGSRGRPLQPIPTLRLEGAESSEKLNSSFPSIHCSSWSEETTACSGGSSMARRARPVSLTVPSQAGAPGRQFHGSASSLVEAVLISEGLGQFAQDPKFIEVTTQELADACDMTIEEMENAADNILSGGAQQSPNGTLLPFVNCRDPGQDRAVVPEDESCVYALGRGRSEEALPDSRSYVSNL
T1 sequence (P54290 25-1091 partner): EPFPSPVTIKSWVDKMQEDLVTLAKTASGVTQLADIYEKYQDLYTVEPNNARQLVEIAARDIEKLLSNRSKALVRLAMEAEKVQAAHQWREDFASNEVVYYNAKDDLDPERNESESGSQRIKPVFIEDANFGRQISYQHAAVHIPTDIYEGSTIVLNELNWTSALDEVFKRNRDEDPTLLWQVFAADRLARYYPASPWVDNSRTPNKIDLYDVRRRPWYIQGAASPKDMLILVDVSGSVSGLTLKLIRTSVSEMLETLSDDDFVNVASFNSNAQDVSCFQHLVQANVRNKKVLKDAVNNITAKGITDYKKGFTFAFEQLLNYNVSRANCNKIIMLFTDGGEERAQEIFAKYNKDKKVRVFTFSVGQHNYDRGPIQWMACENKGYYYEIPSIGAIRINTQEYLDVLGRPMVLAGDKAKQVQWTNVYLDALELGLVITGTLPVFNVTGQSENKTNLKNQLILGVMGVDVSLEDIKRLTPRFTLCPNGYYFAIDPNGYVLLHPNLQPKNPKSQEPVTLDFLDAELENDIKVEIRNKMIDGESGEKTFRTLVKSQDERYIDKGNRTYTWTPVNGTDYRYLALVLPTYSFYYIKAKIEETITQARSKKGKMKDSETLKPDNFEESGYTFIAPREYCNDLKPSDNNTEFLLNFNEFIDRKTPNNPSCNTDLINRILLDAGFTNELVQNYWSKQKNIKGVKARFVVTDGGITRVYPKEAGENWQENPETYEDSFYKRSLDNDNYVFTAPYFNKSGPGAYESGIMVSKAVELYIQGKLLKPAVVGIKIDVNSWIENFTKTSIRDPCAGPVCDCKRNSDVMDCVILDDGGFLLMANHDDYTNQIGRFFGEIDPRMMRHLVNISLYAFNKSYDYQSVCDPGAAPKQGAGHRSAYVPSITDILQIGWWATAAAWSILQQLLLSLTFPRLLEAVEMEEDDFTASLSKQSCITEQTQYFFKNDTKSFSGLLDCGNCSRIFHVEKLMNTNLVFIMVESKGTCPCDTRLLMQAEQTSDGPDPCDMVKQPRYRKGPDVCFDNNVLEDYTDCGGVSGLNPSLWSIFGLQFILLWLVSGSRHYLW
Experimental: The calcium channel blocking activity of the compounds was tested using a helically cut rat aortic strip in Krebs-Henselheit solution at 37° C., bubbled with a mixture of 95% O2 and 5% CO2. The isometrically registered contractions were induced by K^(+). depolarization. The test compounds were applied in a cumulative doses and the vasodilating activity thereof was expressed in calculated concentration of the test compound, causing 50% decrease of contraction of the aortic strip (IC50).

α-adrenergic = target: T2, α-adrenergic (Rattus norvegicus, UniProt P23944); assay: α-adrenergic blocking activity, norepinephrine-induced contraction of helically cut rat aortic strip; details: 37° C., cumulative doses, read-out: IC50 (concentration causing 50% relaxation)
T2 construct: helically cut rat aortic strip; from tissue; host or cells: rat aorta (helically cut strip)
T2 sequence (P23944 1-561): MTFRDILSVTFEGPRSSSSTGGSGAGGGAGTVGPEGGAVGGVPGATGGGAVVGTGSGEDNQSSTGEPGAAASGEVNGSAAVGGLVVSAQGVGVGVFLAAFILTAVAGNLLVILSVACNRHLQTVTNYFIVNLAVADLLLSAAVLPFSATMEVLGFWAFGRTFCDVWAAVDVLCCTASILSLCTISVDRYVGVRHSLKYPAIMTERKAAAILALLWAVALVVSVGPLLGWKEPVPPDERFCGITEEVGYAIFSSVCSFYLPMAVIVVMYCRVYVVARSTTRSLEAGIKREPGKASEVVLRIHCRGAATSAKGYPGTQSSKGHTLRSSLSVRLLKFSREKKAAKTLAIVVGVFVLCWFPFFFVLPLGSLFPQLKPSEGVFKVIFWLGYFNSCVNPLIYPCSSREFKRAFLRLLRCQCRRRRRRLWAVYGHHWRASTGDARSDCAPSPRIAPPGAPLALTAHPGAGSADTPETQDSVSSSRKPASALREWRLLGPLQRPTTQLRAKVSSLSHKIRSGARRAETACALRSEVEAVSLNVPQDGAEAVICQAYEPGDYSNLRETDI
Experimental: a) The α-adrenergic blocking activity of the compounds was tested using a helically cut rat aortic strip in a Krebs-Henselheit solution at 37° C., bubbled with a mixture of 95% O2 and 5% CO2. Norepinephrine induced contractions were detected isometrically. The compounds were added in cumulative doses and the relaxing activity was expressed in per cents of the maximum norepinephrine contraction.

blood pressure [1] = assay: Hypotensive activity, pentobarbital anaesthesized rabbits; type: in vivo, rabbit; details: i.v.
Text: a) The blood pressure of pentobarbital anaesthesized rabbits was registered invasively in arteria femoralis. The average decrease in systolic (SBP) and diastolic (DBP) blood pressure expressed in per cents of the starting blood pressure level after intravenous and oral administration is shown in Tables 3 and 4.

blood pressure [2] = assay: Hypotensive activity, pentobarbital anaesthesized dogs; type: in vivo, dog; details: i.v.
Text: b) The blood pressure of pentobarbital anaesthesized dogs was registered invasively in arteria femoralis. The average decrease in systolic (SBP) arid diastolic (DBP) blood pressure expressed in per cents of the starting blood pressure level after intravenous and oral administration is shown in Tables 5 and 6.

[3] = compared to Verapamil; cited from earlier work
α-adrenergic receptors = details: cited from earlier work
[4] = 0.4 mg/kg, value 1 of 5 (heads 5/30/60/180 min; probably 1 min)
[5] = 0.4 mg/kg, value 2 of 5 (heads 5/30/60/180 min; probably 5 min)
[6] = 0.4 mg/kg, value 3 of 5 (heads 5/30/60/180 min; probably 30 min)
[7] = 0.4 mg/kg, value 4 of 5 (heads 5/30/60/180 min; probably 60 min)
[8] = 0.4 mg/kg, value 5 of 5 (heads 5/30/60/180 min; probably 180 min)
[9] = 4.0 mg/kg, value 1 of 5 (heads 5/30/60/180 min; probably 1 min)
[10] = 4.0 mg/kg, value 2 of 5 (heads 5/30/60/180 min; probably 5 min)
[11] = 4.0 mg/kg, value 3 of 5 (heads 5/30/60/180 min; probably 30 min)
[12] = 4.0 mg/kg, value 4 of 5 (heads 5/30/60/180 min; probably 60 min)
[13] = 4.0 mg/kg, value 5 of 5 (heads 5/30/60/180 min; probably 180 min)

CC(C)C(C#N)(CCCNCC1COc2ccccc2O1)c1ccccc1 (racemic) [VUFB 18087, 5-(2,3-dihydro-1,4-benzodioxin-2-ylmethylamino)-2-phenyl-2-isopropyl valeronitrile]
IC50 (calcium channel): 8.5 µM | IC50 (α-adrenergic): 76 µM | decrease in diastolic blood pressure (DBP) (blood pressure [1]; 0.4 mg/kg, 1 min): -32 per cents | decrease in systolic blood pressure (SBP) (blood pressure [1]; 0.4 mg/kg, 1 min): -10 per cents | decrease in diastolic blood pressure (DBP) (blood pressure [1]; 0.4 mg/kg, 5 min): -16 per cents | decrease in systolic blood pressure (SBP) (blood pressure [1]; 0.4 mg/kg, 5 min): -19 per cents | decrease in diastolic blood pressure (DBP) (blood pressure [1]; 0.4 mg/kg, 30 min): -18 per cents | decrease in systolic blood pressure (SBP) (blood pressure [1]; 0.4 mg/kg, 30 min): -17 per cents | decrease in diastolic blood pressure (DBP) (blood pressure [1]; 0.4 mg/kg, 60 min): -16 per cents | decrease in systolic blood pressure (SBP) (blood pressure [1]; 0.4 mg/kg, 60 min): -17 per cents | decrease in diastolic blood pressure (DBP) (blood pressure [1]; 0.4 mg/kg, 180 min): -8 per cents | decrease in systolic blood pressure (SBP) (blood pressure [1]; 0.4 mg/kg, 180 min): -14 per cents | decrease in diastolic blood pressure (DBP) (blood pressure [1]; 4.0 mg/kg, 1 min): -58 per cents | decrease in systolic blood pressure (SBP) (blood pressure [1]; 4.0 mg/kg, 1 min): -45 per cents | decrease in diastolic blood pressure (DBP) (blood pressure [1]; 4.0 mg/kg, 5 min): -43 per cents | decrease in systolic blood pressure (SBP) (blood pressure [1]; 4.0 mg/kg, 5 min): -45 per cents | decrease in diastolic blood pressure (DBP) (blood pressure [1]; 4.0 mg/kg, 30 min): -29 per cents | decrease in systolic blood pressure (SBP) (blood pressure [1]; 4.0 mg/kg, 30 min): -30 per cents | decrease in diastolic blood pressure (DBP) (blood pressure [1]; 4.0 mg/kg, 60 min): -29 per cents | decrease in systolic blood pressure (SBP) (blood pressure [1]; 4.0 mg/kg, 60 min): -31 per cents | decrease in diastolic blood pressure (DBP) (blood pressure [1]; 4.0 mg/kg, 180 min): -32 per cents | decrease in systolic blood pressure (SBP) (blood pressure [1]; 4.0 mg/kg, 180 min): -28 per cents | decrease in diastolic blood pressure (DBP) (blood pressure [2]; [4]): -37 per cents | decrease in systolic blood pressure (SBP) (blood pressure [2]; [4]): -33 per cents | decrease in diastolic blood pressure (DBP) (blood pressure [2]; [5]): -27 per cents | decrease in systolic blood pressure (SBP) (blood pressure [2]; [5]): -29 per cents | decrease in diastolic blood pressure (DBP) (blood pressure [2]; [6]): -27 per cents | decrease in systolic blood pressure (SBP) (blood pressure [2]; [6]): -29 per cents | decrease in diastolic blood pressure (DBP) (blood pressure [2]; [7]): -13 per cents | decrease in systolic blood pressure (SBP) (blood pressure [2]; [7]): -19 per cents | decrease in diastolic blood pressure (DBP) (blood pressure [2]; [8]): -13 per cents | decrease in systolic blood pressure (SBP) (blood pressure [2]; [8]): -4 per cents | decrease in diastolic blood pressure (DBP) (blood pressure [2]; [9]): -62 per cents | decrease in systolic blood pressure (SBP) (blood pressure [2]; [9]): -49 per cents | decrease in diastolic blood pressure (DBP) (blood pressure [2]; [10]): -31 per cents | decrease in systolic blood pressure (SBP) (blood pressure [2]; [10]): -32 per cents | decrease in diastolic blood pressure (DBP) (blood pressure [2]; [11]): -31 per cents | decrease in systolic blood pressure (SBP) (blood pressure [2]; [11]): -31 per cents | decrease in diastolic blood pressure (DBP) (blood pressure [2]; [12]): -26 per cents | decrease in systolic blood pressure (SBP) (blood pressure [2]; [12]): -27 per cents | decrease in diastolic blood pressure (DBP) (blood pressure [2]; [13]): -26 per cents | decrease in systolic blood pressure (SBP) (blood pressure [2]; [13]): -22 per cents

COc1ccc(CCN(C)CCCC(C#N)(c2ccccc2C)C(C)C)cc1OC (centres unmarked) [Mepamil]
negative inotropic activity [3]: lower negative inotropic activity

c1ccc2c(c1)OCC(CN1CCCCC1)O2 (centres unmarked) [Piperoxan]
α-adrenergic receptor blocking (α-adrenergic receptors): block the α-adrenergic receptors in a competitive manner
